Here are results for 11 molecules from patent US8435978B2, “Substituted sulfonamide compounds” (Gruenenthal GmbH, priority 2006, dated 2013).

One assay has as its target T1, human B1R receptor (Homo sapiens, UniProt P46663).
T1 construct: host or cells: CHO K1 cells (Chinese hamster ovary), stably transfected
T1 sequence (P46663 1-353): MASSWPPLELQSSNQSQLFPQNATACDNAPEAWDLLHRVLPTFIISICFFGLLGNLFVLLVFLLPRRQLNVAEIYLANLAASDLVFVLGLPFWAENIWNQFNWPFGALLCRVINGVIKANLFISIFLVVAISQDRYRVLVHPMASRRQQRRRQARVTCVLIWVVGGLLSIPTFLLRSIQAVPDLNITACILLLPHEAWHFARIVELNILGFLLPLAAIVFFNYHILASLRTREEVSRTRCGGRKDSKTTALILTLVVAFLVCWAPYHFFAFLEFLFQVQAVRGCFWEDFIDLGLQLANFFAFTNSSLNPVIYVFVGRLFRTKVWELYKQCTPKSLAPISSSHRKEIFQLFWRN
Description: Functional study on the bradykinin receptor 1 (B1R), FLIPR Ca2+ assay, hB1R cells. It counts as cell-based. As to conditions: agonist Lys-Des-Arg9-bradykinin 0.5 nM, % inhibition compared with the maximum achievable inhibition; for inhibition at 10 µM: CHO-K1, test substance 10 μM, read-out: B1R Antagonism, human [10 μM] % Inhibition; for B1R Antagonism, human [10 μM] % Inhibition: test substance 10 μM, hB1R CHO K1 cells. In outline:
(§1)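 CHO K1 cells stably expressing human or rat B1R, Fluo-4-loaded; test compound 10 μM added first (activation % vs agonist), then after 10 min 0.5 nM Lys-Des-Arg9-bradykinin (human) or 100 nM Des-Arg9-bradykinin (rat). Ca2+ peak fluorescence by FLIPR; % inhibition relative to maximum achievable inhibition.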

The target of the next assay is T2, B1R receptor of the rat (Rattus norvegicus, UniProt P97583).
T2 construct: host or cells: CHO K1 cells (Chinese hamster ovary), stably transfected
T2 sequence (P97583 1-337): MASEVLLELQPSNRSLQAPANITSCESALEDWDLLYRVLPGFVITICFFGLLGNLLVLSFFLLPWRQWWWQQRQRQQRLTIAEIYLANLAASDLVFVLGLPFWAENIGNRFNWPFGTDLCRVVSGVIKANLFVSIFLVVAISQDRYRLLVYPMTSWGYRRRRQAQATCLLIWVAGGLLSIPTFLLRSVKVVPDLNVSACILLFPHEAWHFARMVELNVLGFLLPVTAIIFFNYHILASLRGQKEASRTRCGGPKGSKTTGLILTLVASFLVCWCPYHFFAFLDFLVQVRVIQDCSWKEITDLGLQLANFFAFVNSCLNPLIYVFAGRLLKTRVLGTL
Description: Functional study on the bradykinin receptor 1 (B1R), FLIPR Ca2+ assay, rB1R cells. It counts as cell-based. As to conditions: agonist Des-Arg9-bradykinin 100 nM, % inhibition compared with the maximum achievable inhibition; for inhibition at 10 µM: CHO-K1, test substance 10 μM, read-out: B1R Antagonism, rat [10 μM] % Inhibition; for B1R Antagonism, rat [10 μM] % Inhibition: test substance 10 μM, rB1R CHO K1 cells. In outline:
as §1

The term inhibition denotes the drop in the measured response relative to a control, in per cent. As to `O=C(COCC1CCCN1S(=O)(=O)c1c(Cl)cc(Cl)cc1Cl)NCCN1CCCC1` (stereo not shown) [Example 339, N-(2-(pyrrolidin-1-yl)ethyl)-2-((1-(2,4,6-trichlorophenylsulfonyl)pyrrolidin-2-yl)methoxy)acetamide], the inhibition at 10 µM stood at 77.5% at human B1R receptor and 41.6% on B1R receptor of the rat.

For `CN1CCC(N2CCN(C(=O)COCC3CCCCN3S(=O)(=O)c3cc(C(F)(F)F)ccc3C(F)(F)F)CC2)CC1` (stereo not shown) [Example 153, 2-((1-(2,5-bis(trifluoromethyl)phenylsulfonyl)piperidin-2-yl)methoxy)-1-(4-(1-methylpiperidin-4-yl)piperazin-1-yl)ethanone], the inhibition at 10 µM was found to be 81.6% on human B1R receptor and 40.6% at B1R receptor of the rat.

With `Cc1cccc(CC2CCCCN2C(=O)COCC2CCCCN2S(=O)(=O)c2c(Cl)cccc2Cl)n1` (stereo not shown) [Example 284, 2-((1-(2,6-dichlorophenylsulfonyl)piperidin-2-yl)methoxy)-1-(2-((6-methylpyridin-2-yl)methyl)piperidin-1-yl)ethanone], the inhibition at 10 µM came to 103% on human B1R receptor and 93.5% on B1R receptor of the rat.

Turning to “2-((1-(2,6-dichlorophenylsulfonyl)piperidin-2-yl)methoxy)-N-(4-(dimethylamino)butyl)acetamide [Example 441]”, the “B1R Antagonism, human [10 μM] % Inhibition” value on human B1R receptor came out at 103.96%. The “B1R Antagonism, rat [10 μM] % Inhibition” value at B1R receptor of the rat is 98.36%.

Take `COc1cc(C)c(S(=O)(=O)N2CCCCC2COCC(=O)NC(C)Cn2cccn2)c(C)c1` (stereo not shown) [Example 426, N-(1-(1H-pyrazol-1-yl)propan-2-yl)-2-((1-(4-methoxy-2,6-dimethylphenylsulfonyl)piperidin-2-yl)methoxy)acetamide]: the inhibition at 10 µM at human B1R receptor was -4.95%; at B1R receptor of the rat, 94.4%.

Consider `COc1cc(C)c(S(=O)(=O)N2CCCC2COCC(=O)N(C)[C@H]2CCN(Cc3ccccc3)C2)c(C)c1` (stereo partly drawn) [Example 303, N—((S)-1-benzylpyrrolidin-3-yl)-2-((1-(4-methoxy-2,6-dimethylphenylsulfonyl)pyrrolidin-2-yl)methoxy)-N-methylacetamide], for which the results for the inhibition at 10 µM at human B1R receptor and on B1R receptor of the rat were 106% and 100%, respectively.

Consider `COc1cc(C)c(S(=O)(=O)N2CCCCC2COCC(=O)NCCN2CCN(C)CC2)c(C)c1` (stereo not shown) [Example 248, 2-((1-(4-methoxy-2,6-dimethylphenylsulfonyl)piperidin-2-yl)methoxy)-N-(2-(4-methylpiperazin-1-yl)ethyl)acetamide], for which the inhibition at 10 µM at human B1R receptor came out at 95.6%; on B1R receptor of the rat it was 89.9%.

In the case of `O=C(COCC1CCCCN1S(=O)(=O)c1c(Cl)cccc1Cl)N1CCN(CC2CCCCC2)CC1` (stereo not shown) [Example 499, 1-(4-(cyclohexylmethyl)piperazin-1-yl)-2-((1-(2,6-dichlorophenylsulfonyl)piperidin-2-yl)methoxy)ethanone], the inhibition at 10 µM at human B1R receptor amounted to 103%; at B1R receptor of the rat, 101%.

`O=C(COCC1CCCCN1S(=O)(=O)c1cccc2ccccc12)N1CCCC1CN1CCCCC1` (stereo not shown) [Example 64, 2-[1-(naphthyl-1-sulfonyl)-piperidin-2-ylmethoxy]-1-(2-piperidin-1-ylmethyl-pyrrolidin-1-yl)-ethanone]: the “B1R Antagonism, human [10 μM] % Inhibition” value at human B1R receptor was found to be 57.92%. In addition, the “B1R Antagonism, rat [10 μM] % Inhibition” value at B1R receptor of the rat is reported as 25.48%.

With `COc1cc(C)c(S(=O)(=O)N2CCCCC2COCC(=O)N2CCC(N3CCN4CCCCC4C3)CC2)c(C)c1.Cl.Cl` (stereo not shown) [Example 99], on human B1R receptor, the “B1R Antagonism, human [10 μM] % Inhibition” value is on record as 103.76%. Moreover, at B1R receptor of the rat, the “B1R Antagonism, rat [10 μM] % Inhibition” value came to 100.08%.

For `COc1cc(C)c(S(=O)(=O)N2CCCCC2COCC(=O)N2CCN(Cc3nc(-c4ccccc4)[nH]c3Cl)CC2)c(C)c1` (stereo not shown) [Example 197, 1-(4-((5-chloro-2-phenyl-1H-imidazol-4-yl)methyl)piperazin-1-yl)-2-((1-(4-methoxy-2,6-dimethylphenylsulfonyl)piperidin-2-yl)methoxy)ethanone], the inhibition at 10 µM is 104% on human B1R receptor and 100% at B1R receptor of the rat.
